Consider two substances from patent US10456451B2, “Protease-resistant mutants of stromal cell derived factor-1 in the repair of tissue damage” (Mesoblast International Sàrl, priority 2010, dated 2019).

Assay [1] deals with T1, MMP-2 (Homo sapiens, UniProt P08253).
T1 construct: purchased R&D Systems
T1 sequence (P08253 110-660): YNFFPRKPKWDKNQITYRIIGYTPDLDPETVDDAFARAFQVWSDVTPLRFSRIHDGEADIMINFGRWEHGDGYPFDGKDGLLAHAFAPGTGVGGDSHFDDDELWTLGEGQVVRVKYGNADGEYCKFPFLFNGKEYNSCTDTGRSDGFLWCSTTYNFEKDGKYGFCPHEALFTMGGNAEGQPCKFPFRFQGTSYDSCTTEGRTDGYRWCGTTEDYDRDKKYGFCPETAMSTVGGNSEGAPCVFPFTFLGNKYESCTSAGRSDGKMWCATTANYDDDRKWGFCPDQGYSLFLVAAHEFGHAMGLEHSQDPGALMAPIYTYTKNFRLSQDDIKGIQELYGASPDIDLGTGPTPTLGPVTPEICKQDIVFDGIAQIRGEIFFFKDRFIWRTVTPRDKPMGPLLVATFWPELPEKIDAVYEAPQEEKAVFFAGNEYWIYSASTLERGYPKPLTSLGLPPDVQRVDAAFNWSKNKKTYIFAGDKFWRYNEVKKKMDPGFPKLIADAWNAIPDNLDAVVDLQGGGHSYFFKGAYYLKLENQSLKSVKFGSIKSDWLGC
Description: MMP-2 cleavage of Sumo fusion proteins, SDS-PAGE. It is filed as biochemical. How it is done: Human recombinant MMP-2 (R&D Systems) was activated for 1 hour with 4-aminophenylmercuric acetate (APMA, 1 mM) at 37° C. 4 μg of Sumo-SSDF-1-RAD or Sumo-SSDF-1(S4V)-RAD was incubated for 1 hour to 48 hours at 21° C. with 50 ng of activated MMP-2 in TCNB buffer (50 mM Tris, pH 7.5, 10 mM CaCl2, 150 mM NaCl, 0.05% Brij-35). Sample loading buffer (Invitrogen) and 2-mercaptoethanol (0.5 M, final concentration) were added, and samples were boiled for 5 minutes and run on a 10% Bis-Tris gel. Proteins used for this experiment were obtained after cation-exchange chromatography, but were neither cleaved by Sumo-protease nor purified by RPC-HPLC.

In assay [2] the test system is Jurkat T-lymphocytic cells. The assay is described as follows: Jurkat T-lymphocyte migration (chemotaxis) assay. The class given is cell-based. Here is the method: Jurkat cells were labeled with Calcein-AM (1 μM) for 60 minutes at 37° C., washed twice and resuspended in RPMI without phenol red to a final density of 4,000,000 cells/ml. […] Cells were allowed to migrate for 3 hours, and cells in lower wells were washed once with PBS. Fluorescence in lower wells was measured at 485 nm excitation and 535 nm emission wavelengths with a Victor Wallace II plate reader. A standard curve was constructed for each experiment to normalize fluorescence to the number of cells.

In assay [3] the target is CXCR7 (Homo sapiens, UniProt P25106). The assay is described as follows: CXCR7 β-arrestin recruitment assay (PathHunter). It is filed as cell-based. Here is the method:
(§1) PathHunter β-arrestin assays were performed following the instructions of the manufacturer (DiscoveRx). Briefly, PathHunter cell lines stably expressing both a β-arrestin-Enzyme Acceptor of β-galactosidase fusion and one of the chemokine receptors fused with the ProLink donor peptide of […] were employed. Upon CXCR stimulation, β-arrestin is recruited to the receptor for desensitization, bringing the two fragments (the Enzyme Acceptor and the ProLink) of β-galactosidase together. This generates an active β-galactosidase enzyme that can convert a substrate to a chemiluminescent product. Cells were seeded at a density of 5000 cells/well in a 384-well plate and were allowed to adhere overnight. […] After incubation, chemiluminescent signal was generated through addition of 12.5 μl (50% v/v) of PathHunter Detection reagent cocktail (DiscoveRx) followed by a 1-hour incubation at room temperature. Microplates were read with a PerkinElmer ViewLux instrument.

Assay [4] concerns the target T2, CXCR4 (Homo sapiens, UniProt P61073). Description: CXCR4 β-arrestin recruitment assay (PathHunter). The class given is cell-based. How it is done:
as §1
Background: Arrestin recruitment assays detect the binding of arrestin to an activated receptor.

Assay [5] relates to ischemic hindlimb blood flow. The assay is described as follows: Hindlimb ischemia model, laser Doppler blood flow. The class given is in vivo, C57BL/6 mice. As to conditions: without nanofibers. How it is done:
All animal protocols were approved by the institutional IACUC and performed in an AAALAC certified facility. Studies were performed blinded and randomized. Hindlimb ischemia was produced in male C57BL/6 mice (305 mice total), 8 to 12 weeks old (Jackson Laboratories and Charles River Laboratories). Mice were anesthetized with isoflurane (2-3% in 100% oxygen) and buprenorphin (0.05 mg/kg). Femoral artery was ligated and excised below the inguinal ligament and above the bifurcation of the popliteal artery. Protein and self-assembling peptide nanofibers were injected in the lower hindlimb after excision of the artery. Peptides were dissolved in isotonic sucrose (10%). Post-operative analgesia was provided with buprenorphin (0.05 mg/kg every 6 to 12 hours for 72 hours). The surgeon was blinded to the treatment groups in all studies performed. The first study included 35 animals total (5 animals per group), which received an intramuscular injection in the lower hindlimb with biotin-labeled nanofibers (biotin-RAD, 0.01% in 1% nanofibers hydrogel). Tissues were harvested at seven different time points and nanofibers were stained with Alexa fluor-labeled streptavidin. The second study included 40 animals (10 per group) with four groups: control without injection, nanofibers only, nanofibers+100 nM SSDF-1-RAD, and nanofibers+100 nM SSDF-1(S4V)-RAD. Laser Doppler blood flow measurements were performed with a Moor LDI2-IR (Moor Instruments) 2, 4, and 6 weeks after surgery. At each time point, five measurements (on average) per animal were made, and blood flow in the ischemic limb was normalized to blood flow in normal limb. The third study included 50 animals with four different dosages of SSDF-1(S4V)-RAD; all groups contained nanofibers. All laser Doppler measurements and histology quantifications were made by an operator blinded to the treatment groups.

Assay [6] has as its target T2, CXCR4. Description: CXCR4 cAMP receptor activation assay (CHO-K1 cells expressing CXCR4). As to conditions: decrease in cAMP by Gαi activation, forskolin at EC80. The class given is cell-based. Further details: host or cells: CHO-K1. How it is done:
For the CXCR4 cAMP assay, CHO-K1 cells stably expressing the CXCR4 receptor (DiscoveRx, Fremont, Calif.) were seeded at a density of 10,000 cells/well in a 384-well plate and were allowed to recover overnight. A decrease in cAMP by CXCR4-induced Gαi activation was determined using the DiscoveRx HitHunter cAMP XS+assay following the manufacturer's protocol. […] Chemiluminescence was read with a PerkinElmer ViewLux instrument.

A word on the EC50: it is the midpoint of the concentration-response curve. A higher EC50 goes with a less potent agent.

T2 sequence (P61073 whole entry): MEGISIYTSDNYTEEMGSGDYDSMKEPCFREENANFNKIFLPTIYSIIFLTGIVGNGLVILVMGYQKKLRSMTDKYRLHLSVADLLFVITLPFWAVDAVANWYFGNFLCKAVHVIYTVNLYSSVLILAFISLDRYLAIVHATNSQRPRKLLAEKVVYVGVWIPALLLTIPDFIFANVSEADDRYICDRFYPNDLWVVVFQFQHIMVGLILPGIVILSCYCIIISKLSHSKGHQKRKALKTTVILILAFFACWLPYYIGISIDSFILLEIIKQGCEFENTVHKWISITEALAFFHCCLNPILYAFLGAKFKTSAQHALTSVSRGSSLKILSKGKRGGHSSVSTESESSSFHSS
CXCR7, sequence (P25106 whole entry, the tested form may be a part): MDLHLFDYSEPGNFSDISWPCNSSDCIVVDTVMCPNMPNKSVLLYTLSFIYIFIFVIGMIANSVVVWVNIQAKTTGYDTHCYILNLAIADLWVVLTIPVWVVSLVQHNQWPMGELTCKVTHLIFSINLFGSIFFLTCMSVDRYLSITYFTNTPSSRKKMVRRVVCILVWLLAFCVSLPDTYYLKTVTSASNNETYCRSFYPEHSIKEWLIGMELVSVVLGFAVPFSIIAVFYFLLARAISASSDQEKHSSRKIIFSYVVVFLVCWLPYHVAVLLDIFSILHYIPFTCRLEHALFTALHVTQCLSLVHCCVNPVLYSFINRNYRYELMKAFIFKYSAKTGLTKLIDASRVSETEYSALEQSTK

As for “SDF-1(S4V): SDF-1 with Ser→Val at position 4, SEQ ID NO:65”, the “rate of cleavage lower than SDF-1” value in assay [1] is given as “at least 48 times”.
“SSDF-1 (S4V): SDF-1(S4V) (SEQ ID NO:65) with a serine residue added at the N-terminus”: the concentration for a half-maximal effect (EC50) is 0.0054 µM in assay [2] (Jurkat cells, 3 hours migration); 0.037 µM in assay [3]; 0.028 µM in assay [4]; 0.02 µM in assay [6]. Moreover, the “activity in Jurkat cell migration assay” value in assay [2] (result in words) is “highest potency”. Further, the “average blood flow (ratio of ischemic to control limb)” value in assay [5] (four weeks, 4 administrations (d0, d1, d3, d5) of 1 mg/kg) is 27.1±2.5%. Besides, the “blood flow differences between groups” value in assay [5] (fourth study, 1 mg/kg daily IM for first 7 days) is recorded as “No significant differences in blood flow”; in assay [5] (separate confirming study, same doses and schedule) it was “did not show significant differences between groups”; in assay [5] (third study, 0.1, 0.3, 1 and 3 mg/kg at d0, d1, d3, d5), “No significant differences in blood flow”.
